#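 In this assay, cells in 96-well plates receive the compound at five concentrations for 48 hours. Endpoints are linearly interpolated between the surrounding concentrations. At the TGI there is no net growth.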
# Key:
# Assay in all cases: NCI anticancer screen, dose series, 48 h
# [1] = system: 786-0 renal
# [2] = system: A498 renal
# [3] = system: A549 NSCLC
# [4] = system: ACHN renal
# [5] = system: CAKI-1 renal
# [6] = system: CCRF-CEM leukemia
# [7] = system: DLD-1 colon
# [8] = system: DMS 114 small cell lung
# [9] = system: DMS 273 small cell lung
# [10] = system: EKVX NSCLC
# [11] = system: HCC-2998 colon
# [12] = system: HCT-116 colon
# [13] = system: HCT-15 colon
# [14] = system: HL-60(TB) leukemia
# [15] = system: HOP-62 NSCLC
# [16] = system: HT29 colon
# [17] = system: IGROV1 ovarian
# [18] = system: K-562 leukemia
# [19] = system: KM12 colon
# [20] = system: KM20L2 colon
# [21] = system: LXFL 529 NSCLC
# [22] = system: M14 melanoma
# [23] = system: M19-MEL melanoma
# [24] = system: MALME-3M melanoma
# [25] = system: MOLT-4 leukemia
# [26] = system: NCI-H226 lung
# [27] = system: NCI-H23 lung
# [28] = system: NCI-H460 lung
# [29] = system: OVCAR-3 ovarian
# [30] = system: OVCAR-4 ovarian
# [31] = system: OVCAR-5 ovarian
# [32] = system: OVCAR-8 ovarian
# [33] = system: RPMI-8226 leukemia
# [34] = system: RXF 393 renal
# [35] = system: SF-295 CNS
# [36] = system: SF-539 CNS
# [37] = system: SK-MEL-2 melanoma
# [38] = system: SK-MEL-28 melanoma
# [39] = system: SK-MEL-5 melanoma
# [40] = system: SK-OV-3 ovarian
# [41] = system: SNB-75 CNS
# [42] = system: SNB-78 CNS
# [43] = system: SW-620 colon
# [44] = system: TK-10 renal
# [45] = system: U251 CNS
# [46] = system: UACC-257 melanoma
# [47] = system: UACC-62 melanoma
# [48] = system: UO-31 renal
# [49] = system: XF 498 CNS
# [50] = system: COLO 205 colon
# [51] = system: HOP-92 NSCLC
# [52] = system: LOX IMVI melanoma
# [53] = system: NCI-H522 lung
# [54] = system: SF-268 CNS
# [55] = system: SN12C renal
# [56] = system: SNB-19 CNS
smiles,measurement,setting,value
CCNC1C2(CCCCC2)NC(=O)C12CCCCC2 (stereo not given),TGI,[1],> 100 µM
same,TGI,[2],> 100 µM
same,TGI,[3],> 100 µM
same,TGI,[4],> 100 µM
same,TGI,[5],> 100 µM
same,TGI,[6],> 100 µM
same,TGI,[7],> 100 µM
same,TGI,[8],> 100 µM
same,TGI,[9],> 100 µM
same,TGI,[10],> 100 µM
same,TGI,[11],> 100 µM
same,TGI,[12],> 100 µM
same,TGI,[13],> 100 µM
same,TGI,[14],> 100 µM
same,TGI,[15],> 100 µM
same,TGI,[16],> 100 µM
same,TGI,[17],> 100 µM
same,TGI,[18],> 100 µM
same,TGI,[19],> 100 µM
same,TGI,[20],> 100 µM
same,TGI,[21],> 100 µM
same,TGI,[22],> 100 µM
same,TGI,[23],> 100 µM
same,TGI,[24],> 100 µM
same,TGI,[25],> 100 µM
same,TGI,[26],> 100 µM
same,TGI,[27],> 100 µM
same,TGI,[28],> 100 µM
same,TGI,[29],> 100 µM
same,TGI,[30],> 100 µM
same,TGI,[31],> 100 µM
same,TGI,[32],> 100 µM
same,TGI,[33],> 100 µM
same,TGI,[34],> 100 µM
same,TGI,[35],> 100 µM
same,TGI,[36],> 100 µM
same,TGI,[37],> 100 µM
same,TGI,[38],> 100 µM
same,TGI,[39],> 100 µM
same,TGI,[40],> 100 µM
same,TGI,[41],> 100 µM
same,TGI,[42],> 100 µM
same,TGI,[43],> 100 µM
same,TGI,[44],> 100 µM
same,TGI,[45],> 100 µM
same,TGI,[46],> 100 µM
same,TGI,[47],> 100 µM
same,TGI,[48],> 100 µM
same,TGI,[49],> 100 µM
CC(=O)OC(C)C(=O)C1c2cccc(O)c2C(=O)c2c(O)cc(C)cc21 (stereo not given),TGI,[1],2.28 µM
same,TGI,[2],3.68 µM
same,TGI,[3],1.11 µM
same,TGI,[4],1.85 µM
same,TGI,[6],6.05 µM
same,TGI,[50],3.01 µM
same,TGI,[7],3.22 µM
same,TGI,[8],0.497 µM
same,TGI,[9],1.85 µM
same,TGI,[10],4.09 µM
same,TGI,[11],1.69 µM
same,TGI,[12],1.09 µM
same,TGI,[13],1.55 µM
same,TGI,[14],0.847 µM
same,TGI,[15],1.01 µM
same,TGI,[51],1.02 µM
same,TGI,[16],3.03 µM
same,TGI,[17],1.66 µM
same,TGI,[18],9.03 µM
same,TGI,[19],1.23 µM
same,TGI,[20],2.72 µM
same,TGI,[52],1.82 µM
same,TGI,[23],1.23 µM
same,TGI,[24],1.82 µM
same,TGI,[25],8.17 µM
same,TGI,[26],1.03 µM
same,TGI,[27],1.15 µM
same,TGI,[28],1.35 µM
same,TGI,[53],3.02 µM
same,TGI,[29],1.43 µM
same,TGI,[30],1.56 µM
same,TGI,[31],2.59 µM
same,TGI,[32],2.24 µM
same,TGI,[33],5.98 µM
same,TGI,[34],0.813 µM
same,TGI,[54],1.5 µM
same,TGI,[35],1.19 µM
same,TGI,[36],0.589 µM
same,TGI,[37],1.44 µM
same,TGI,[38],2.3 µM
same,TGI,[39],1.31 µM
same,TGI,[40],1.81 µM
same,TGI,[55],2.24 µM
same,TGI,[56],1.6 µM
same,TGI,[41],1.83 µM
same,TGI,[43],1.71 µM
same,TGI,[44],2.88 µM
same,TGI,[45],1.11 µM
same,TGI,[46],1.4 µM
same,TGI,[48],0.744 µM
same,TGI,[49],0.465 µM

# Source: PubChem BioAssay (NCI)
